Patent US20260152799A1, “TUMOUR STRATIFICATION FOR RESPONSIVENESS TO AN IMMUNE CHECKPOINT INHIBITOR” (MEMORIAL SLOAN-KETTERING CANCER CENTER, priority 2022, published 2026)

Columns and labels:
PD-L1 [1] = target: T1, PD-L1 (Homo sapiens, UniProt Q9NZQ7); settings: in vitro; cited from earlier work
PD-L1 [2] = target: T1, PD-L1; settings: xenograft model, T-cell dependent mechanism; cited from earlier work
metastatic melanoma [3] = assay: Riaz et al clinical cohort: response to nivolumab by tumour mtDNA mutation status; assay type: in vivo, humans
Method: A—Stratification of a metastatic melanoma patient cohort by mtDNA status. […] P-values were determined using one-way ANOVA test with Sidak multiple comparisons test (C,F), one-tailed student's t-test (I) or chi-squared test (H) were applied. Error bars indicate SD. Measure of centrality is mean.
The inventors then assessed whether this would be associated with clinical outcome.
Aligned reads for ChrM for patients' tumour and normal samples were acquired and processed according to previously described pipelines which are now publicly available (see e.g. Gorelick et al., Nature Metabolism 2021). Mutation calls and calculated heteroplasmy were used to assign patients to mtDNA wildtype, <50% VAF or >50% VAF groups.

metastatic melanoma [4] = settings: of the 15 responders; cited from earlier work

T1 sequence (Q9NZQ7 19-290): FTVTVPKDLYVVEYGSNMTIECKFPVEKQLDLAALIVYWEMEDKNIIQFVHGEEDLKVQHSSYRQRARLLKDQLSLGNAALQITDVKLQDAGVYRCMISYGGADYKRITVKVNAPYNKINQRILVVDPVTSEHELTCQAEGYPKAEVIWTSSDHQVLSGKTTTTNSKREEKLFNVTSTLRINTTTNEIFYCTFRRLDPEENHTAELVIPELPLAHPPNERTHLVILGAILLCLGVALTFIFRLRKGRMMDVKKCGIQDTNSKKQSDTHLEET

Substance | Effect on PD-L1-mediated suppression of human T-cell activation (PD-L1 [1]) | Effect on tumour growth (PD-L1 [2]) | Tumours responding to nivolumab (metastatic melanoma [3]; <50% VAF tumours) | Tumours responding to nivolumab (metastatic melanoma [3]; >50% VAF tumours) | Complete responders categorised as >50% VAF (metastatic melanoma [3]; out of the 3 complete responders) | Complete responses (metastatic melanoma [4]) | Partial responses (metastatic melanoma [4])
MEDI4736: anti-PD-L1 antibody selective for PD-L1 that blocks binding of PD-L1 to PD-1 and CD80 | relieve PD-L1-mediated suppression of human T-cell activation | inhibit tumour growth |  |  |  |  | 
nivolumab |  |  | 17% | 40% | 2 | 3 | 12
